In the NIST ThermoML archive (doi:10.1016/j.jct.2016.12.019):
± gives the expanded uncertainty stated by the source.

How the values were obtained:
[1] = xn = mol fraction of the nth substance listed; details: 100 kPa, Liquid, x2 = 0; for viscosity: Capillary tube (Ostwald / Ubbelohde) method; for speed of sound: Frequency=2 MHz, Linear variable-path acoustic interferometer; for mass density: Vibrating tube method
[2] = 100 kPa, Liquid; for viscosity: Capillary tube (Ostwald / Ubbelohde) method; for speed of sound: Frequency=2 MHz, Linear variable-path acoustic interferometer; for mass density: Vibrating tube method

## CCCCCCCCCO [nonan-1-ol] + CCN(CC)c1ccccc1
[1]; 303.15 K
  viscosity: 7.809 ± 0.21 mPa·s
  speed of sound: 1357 ± 8.3 m/s
  mass density: 821.36 ± 1.1 kg/m3
[1]; 308.15 K
  viscosity: 6.499 ± 0.18 mPa·s
  speed of sound: 1334 ± 8.2 m/s
  mass density: 817.54 ± 1.1 kg/m3
[1]; 313.15 K
  viscosity: 5.665 ± 0.15 mPa·s
  speed of sound: 1313 ± 8 m/s
  mass density: 814.05 ± 1.1 kg/m3
[1]; 318.15 K
  viscosity: 4.676 ± 0.13 mPa·s
  speed of sound: 1293.5 ± 7.9 m/s
  mass density: 808.97 ± 1.1 kg/m3

## CCCCCCCCCCO [decan-1-ol] + CCN(CC)c1ccccc1
[1]; 303.15 K
  viscosity: 9.751 ± 0.27 mPa·s
  speed of sound: 1363.5 ± 8.3 m/s
  mass density: 822.89 ± 1.1 kg/m3
[1]; 308.15 K
  viscosity: 8.138 ± 0.22 mPa·s
  speed of sound: 1344.2 ± 8.2 m/s
  mass density: 819.54 ± 1.1 kg/m3
[1]; 313.15 K
  viscosity: 6.846 ± 0.19 mPa·s
  speed of sound: 1328.5 ± 8.1 m/s
  mass density: 815.95 ± 1.1 kg/m3
[1]; 318.15 K
  viscosity: 5.879 ± 0.16 mPa·s
  speed of sound: 1320.5 ± 8 m/s
  mass density: 811.35 ± 1.1 kg/m3

## CCN(CC)c1ccccc1 [N,N-diethylaniline]
[2]; 303.15 K
  viscosity: 1.711 ± 0.046 mPa·s
  speed of sound: 1432 ± 8.7 m/s
  mass density: 925.8 ± 1.1 kg/m3
[2]; 308.15 K
  viscosity: 1.537 ± 0.041 mPa·s
  speed of sound: 1416 ± 8.6 m/s
  mass density: 921.8 ± 1.1 kg/m3
[2]; 313.15 K
  viscosity: 1.4 ± 0.038 mPa·s
  speed of sound: 1398 ± 8.5 m/s
  mass density: 917.9 ± 1.1 kg/m3
[2]; 318.15 K
  viscosity: 1.276 ± 0.034 mPa·s
  speed of sound: 1378 ± 8.4 m/s
  mass density: 913.8 ± 1.1 kg/m3

## CCCCCCCCO [octan-1-ol] + CCN(CC)c1ccccc1
[1]; 303.15 K
  viscosity: 6.405 ± 0.17 mPa·s
  speed of sound: 1333.5 ± 8.2 m/s
  mass density: 818.25 ± 1.1 kg/m3
[1]; 308.15 K
  viscosity: 5.422 ± 0.15 mPa·s
  speed of sound: 1312.5 ± 8 m/s
  mass density: 814.72 ± 1.1 kg/m3
[1]; 313.15 K
  viscosity: 4.625 ± 0.13 mPa·s
  speed of sound: 1295.4 ± 7.9 m/s
  mass density: 810.07 ± 1.1 kg/m3
[1]; 318.15 K
  viscosity: 4.051 ± 0.11 mPa·s
  speed of sound: 1282.5 ± 7.8 m/s
  mass density: 805.52 ± 1.1 kg/m3

## CCCCCCCCCO [nonan-1-ol]
[2]; 303.15 K
  viscosity: 7.809 ± 0.21 mPa·s
  speed of sound: 1357 ± 8.3 m/s
  mass density: 821.36 ± 1.1 kg/m3
[2]; 308.15 K
  viscosity: 6.499 ± 0.18 mPa·s
  speed of sound: 1334 ± 8.2 m/s
  mass density: 817.54 ± 1.1 kg/m3
[2]; 313.15 K
  viscosity: 5.665 ± 0.15 mPa·s
  speed of sound: 1313 ± 8 m/s
  mass density: 814.05 ± 1.1 kg/m3
[2]; 318.15 K
  viscosity: 4.676 ± 0.13 mPa·s
  speed of sound: 1293.5 ± 7.9 m/s
  mass density: 808.97 ± 1.1 kg/m3
